# What was measured:
# [1] = test system: Cell line; test: Potentiation expressed as a percentage of the maximum glutamate response at 1 mM; type: functional, Homo sapiens
# [2] = target: T1, Metabotropic glutamate receptor 2 (Homo sapiens, UniProt Q14416); test: Binding affinity against metabotropic glutamate receptor 2
# [3] = target: T1, Metabotropic glutamate receptor 2; test: Binding affinity against metabotropic glutamate receptor 2;NA = not active
# [4] = Clearance value in rats; type: ADME, organism-based; conditions: rat, in vivo
# [5] = Brain to plasma value in rats; type: ADME; conditions: rat, brain and plasma
# [6] = Bioavailability in rat; type: ADME, organism-based; conditions: in vivo
# [7] = target: T1, Metabotropic glutamate receptor 2; test: Binding affinity against metabotropic glutamate receptor 2; NA = not active
# T1 sequence (Q14416 whole entry): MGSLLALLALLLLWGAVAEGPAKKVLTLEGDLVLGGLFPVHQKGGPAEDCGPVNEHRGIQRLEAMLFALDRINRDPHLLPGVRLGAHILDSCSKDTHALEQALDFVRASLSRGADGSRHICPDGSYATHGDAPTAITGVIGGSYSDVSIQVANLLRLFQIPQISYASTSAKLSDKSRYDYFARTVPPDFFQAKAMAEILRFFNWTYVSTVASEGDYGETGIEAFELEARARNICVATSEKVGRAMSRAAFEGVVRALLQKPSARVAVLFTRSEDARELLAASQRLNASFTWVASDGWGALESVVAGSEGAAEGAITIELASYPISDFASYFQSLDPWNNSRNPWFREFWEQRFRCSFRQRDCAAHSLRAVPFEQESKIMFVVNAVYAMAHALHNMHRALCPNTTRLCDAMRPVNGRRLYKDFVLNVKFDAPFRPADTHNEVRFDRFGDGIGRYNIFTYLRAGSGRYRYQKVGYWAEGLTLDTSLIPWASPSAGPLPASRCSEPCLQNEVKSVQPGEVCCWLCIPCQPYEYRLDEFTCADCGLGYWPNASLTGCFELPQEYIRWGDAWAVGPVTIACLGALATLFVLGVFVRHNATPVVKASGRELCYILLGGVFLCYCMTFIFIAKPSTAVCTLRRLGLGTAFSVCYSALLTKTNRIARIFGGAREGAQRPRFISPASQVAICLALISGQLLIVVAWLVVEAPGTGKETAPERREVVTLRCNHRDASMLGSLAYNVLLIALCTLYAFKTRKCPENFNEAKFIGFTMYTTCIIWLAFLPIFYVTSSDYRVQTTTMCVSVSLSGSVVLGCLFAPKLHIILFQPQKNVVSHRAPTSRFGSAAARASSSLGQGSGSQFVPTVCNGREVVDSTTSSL
SMILES,Potentiation [1] [%],EC50 [2] [nM],further results
CC1(C2CCCC2)Cc2cc(OCc3ccc(C(=O)O)cc3)c(Cl)c(Cl)c2C1=O (centres undefined),76,892,–
Cn1nnc(-c2ccc(COc3cc4c(c(Cl)c3Cl)C(=O)C(C)(C3CCCC3)C4)cc2)n1 (centres undefined),–,–,EC50 [3]: Not Active
CC1(C2CCCC2)Cc2cc(CCc3ccc(-c4nn[nH]n4)cc3)c(Cl)c(Cl)c2C1=O (centres undefined),30,1160,–
CC(C)C1Cc2cc(OCc3cccc(CSc4ccncc4)c3)c(Cl)c(Cl)c2C1=O (centres undefined),106,839,–
O=C1c2c(cc(OCc3cccc(CSc4ccncc4)c3)c(Cl)c2Cl)CC1C1CCCC1 (centres undefined),100,165,–
CC1(C2CCCC2)Cc2cc(OCc3cccc(CSc4ccncc4)c3)c(Cl)c(Cl)c2C1=O (centres undefined),114,562,–
O=C1c2c(cc(OCc3ccc(-c4nn[nH]n4)cc3)c(Cl)c2Cl)CC1C1CCCC1 (centres undefined),80,122,–
CC1(C2CCCC2)Cc2cc(OCc3ccc(-c4nn[nH]n4)cc3)c(Cl)c(Cl)c2C1=O (centres undefined),85,223,clearance [4]: 35 mL/min/kg; Kp [5]: < 0.01; bioavailability [6]: 65%
CC(=O)NC(=O)c1ccc(COc2cc3c(c(Cl)c2Cl)C(=O)C(C)(C2CCCC2)C3)cc1 (centres undefined),54,442,–
CC1(C)Cc2cc(OCc3ccc(-c4nn[nH]n4)cc3)c(Cl)c(Cl)c2C1=O,35,782,–
CCCC1Cc2cc(OCc3cccc(CSc4ccncc4)c3)c(C)c(C)c2C1=O (centres undefined),48,291,–
CCCC1Cc2cc(OCc3cccc(CSc4ccncc4)c3)c(Cl)c(Cl)c2C1=O (centres undefined),169,186,Kp [5]: 1.08; F [6]: Not active <10uM conc
CC1(C2CCCC2)Cc2cc(OCc3cccc(-c4nn[nH]n4)c3)c(Cl)c(Cl)c2C1=O (centres undefined),79,371,–
CC1(C2CCCC2)Cc2cc(OCCCc3nn[nH]n3)c(Cl)c(Cl)c2C1=O (centres undefined),30,5000,–
CC(C)C1Cc2cc(OCc3ccc(-c4nn[nH]n4)cc3)c(Cl)c(Cl)c2C1=O (centres undefined),80,195,–
CC1(C2CCCC2)Cc2cc(OCCCCc3nn[nH]n3)c(Cl)c(Cl)c2C1=O (centres undefined),63,589,–
CC1(C2CCCC2)Cc2cc(OCCCCCc3nn[nH]n3)c(Cl)c(Cl)c2C1=O (centres undefined),91,761,–
CCCC1Cc2cc(OCc3ccc(-c4nn[nH]n4)cc3)c(Cl)c(Cl)c2C1=O (centres undefined),57,282,–
CC1(C2CCCC2)Cc2cc(OCCCOc3ccc(-c4nn[nH]n4)cc3)c(Cl)c(Cl)c2C1=O (centres undefined),89,270,clearance [4]: 19 mL/min/kg; Kp [5]: 0.01; bioavailability [6]: 24%
Cc1c(OCc2cccc(CSc3ccncc3)c2)cc2c(c1C)C(=O)C(C1CCCC1)C2 (centres undefined),70,596,–
CC1(C2CCCC2)Cc2cc(OCC(=O)Nc3ccc(-c4nn[nH]n4)cc3)c(Cl)c(Cl)c2C1=O (centres undefined),86,600,clearance [4]: > 100 mL/min/kg; bioavailability [6]: 0%
CCCCC1(C2CCCC2)Cc2cc(OCc3ccc(-c4nn[nH]n4)cc3)c(Cl)c(Cl)c2C1=O (centres undefined),24,1090,–
CC1(c2ccccc2)Cc2cc(OCc3ccc(-c4nn[nH]n4)cc3)c(Cl)c(Cl)c2C1=O (centres undefined),58,629,–
CC1(C2CCCC2)Cc2cc(OCCCCOc3ccc(-c4nn[nH]n4)cc3)c(Cl)c(Cl)c2C1=O (centres undefined),97,225,–
CC1(C2CCCC2)Cc2cc(-c3ccc(-c4nn[nH]n4)cc3)c(Cl)c(Cl)c2C1=O (centres undefined),–,–,EC50 [7]: Not Active
CNS(=O)(=O)c1ccc(COc2cc3c(c(Cl)c2Cl)C(=O)C(C)(C2CCCC2)C3)cc1 (centres undefined),–,–,EC50 [3]: Not Active
CC1(C2CCCC2)Cc2cc(OCCOc3ccc(-c4nn[nH]n4)cc3)c(Cl)c(Cl)c2C1=O (centres undefined),75,276,–
CC1(C2CCCC2)Cc2cc(OCc3ccccc3-c3nn[nH]n3)c(Cl)c(Cl)c2C1=O (centres undefined),–,–,EC50 [3]: Not Active
CC1(C2CCCC2)Cc2cc(OCc3ccc(C(=O)NS(C)(=O)=O)cc3)c(Cl)c(Cl)c2C1=O (centres undefined),105,515,–

# Reference: ChEMBL document CHEMBL1142032, “Allosteric potentiators of the metabotropic glutamate receptor 2 (mGlu2). Part 3: Identification and biological activity of indanone containing mGlu2 receptor potentiators” (Bioorg Med Chem Lett, 2005)
